Test results as given in US11852632B2, “Cancer test device, cancer test method, and staining agent for use in cancer test” (MIE UNIVERSITY, priority 2016, dated 2023).
Where two headings read alike, the source gives them in different places.

Assays:
[1] = target: T1, cancer-related gene product STAT3 (Mus musculus, UniProt P42227); assay: Curcumin living body staining compared with anti-STAT3 antibody immunostaining of the same site, confocal laser microscope; format: in vivo, laboratory mouse; details: 1%-curcumin then 1%-Acid Red, FIG. 4A (b) versus (e)
T1 construct: used to stain the expressed STAT3-family cancer-related gene product in the living cell; from tissue; host or cells: inner wall of the large intestine of a living laboratory mouse (cancerous and healthy sites)
Excerpt: The sections (a), (b), and (c) of FIG. 4A are images of a sample that is a double-stained living cell group of the inner wall of the intestine of a living laboratory mouse produced by staining the inner wall of the intestine with a 1%-curcumin solution and then staining the curcumin-stained inner wall with 1%-Acid Red (C27H29N2NaO7S2). A confocal laser microscope was used as the image device.
It is therefore determined that the site containing the cell group heavily stained with the curcumin stain is ultra-early cancer. The three panels (d), (e), and (f) in the lower row of FIG. 4A show images of the same site of the large intestine of the digestive tract of the laboratory mouse imaged in the same living body staining as that in the upper row, fixed with formalin, and then imaged in the fluorescence antibody technique. […] The section (f) is a (d)+(e) superimposed image.
The sections (d), (e), and (f) of FIG. 4A are produced by fixing the intestine of the laboratory mouse described above with formalin, then immunostaining the intestine with an anti-STAT3 antibody that bonds to the STAT3-family cancer-related gene product, and imaging the same location as those surrounded by the white frames in the sections (a), (b), and (c). In the sections (d) to (f), the samples were fixed with formalin and therefore slightly shrunk.

cancer tissue = format: in vivo, laboratory mouse; details: mouse; for depth to which the tissue is stained: in vivo
Protocol: (§1) A laboratory mouse was used as the living body. […] The staining period was set at 5 minutes.

healthy mucosa tissue = system: healthy mucosa tissue; set-up: species or system laboratory mouse; details: mouse, in vivo
Protocol: as §1

T1 sequence (P42227 whole entry): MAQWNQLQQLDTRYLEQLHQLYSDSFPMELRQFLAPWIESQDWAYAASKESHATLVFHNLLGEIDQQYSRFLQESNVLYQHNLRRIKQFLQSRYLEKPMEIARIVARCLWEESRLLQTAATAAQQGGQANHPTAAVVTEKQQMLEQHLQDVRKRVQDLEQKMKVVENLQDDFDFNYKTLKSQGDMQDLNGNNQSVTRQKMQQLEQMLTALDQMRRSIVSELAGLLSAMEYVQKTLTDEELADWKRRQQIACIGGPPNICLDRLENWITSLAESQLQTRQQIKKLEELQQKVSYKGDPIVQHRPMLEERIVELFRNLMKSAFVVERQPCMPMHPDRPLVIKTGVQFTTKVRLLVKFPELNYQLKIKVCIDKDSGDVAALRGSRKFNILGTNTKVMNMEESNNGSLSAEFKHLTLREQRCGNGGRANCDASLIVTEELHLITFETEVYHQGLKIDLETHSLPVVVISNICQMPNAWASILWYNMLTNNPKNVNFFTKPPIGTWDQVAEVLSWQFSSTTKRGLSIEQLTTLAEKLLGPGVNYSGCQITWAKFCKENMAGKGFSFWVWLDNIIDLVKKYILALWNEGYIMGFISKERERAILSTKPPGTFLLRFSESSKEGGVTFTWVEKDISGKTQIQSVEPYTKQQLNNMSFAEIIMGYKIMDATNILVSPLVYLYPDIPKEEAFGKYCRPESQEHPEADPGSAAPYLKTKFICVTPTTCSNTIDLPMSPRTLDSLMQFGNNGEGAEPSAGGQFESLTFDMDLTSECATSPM

Row | SMILES | distribution of heavily stained cell group versus cell group with STAT3 highly expressed (anti-STAT3 antibody) [1] | permeability in the cancer tissue compared with the healthy mucosa tissue (cancer tissue) | depth to which the tissue is stained (cancer tissue; 5 min) | depth to which the tissue is stained (healthy mucosa tissue; 5 min) | depth to which the tissue is stained (cancer tissue) | depth to which the tissue is stained (healthy mucosa tissue)
1 | COc1cc(/C=C/C(=O)CC(=O)/C=C/c2ccc(O)c(OC)c2)ccc1O [curcumin] | coincides with the distribution of the cell group shown in the section (e) in the lower row and having the cancer-related gene product STAT3 highly expressed | higher permeability | about 40 μm | about 20 μm | – | –
2 | CCN(CC)c1ccc2c(-c3ccc(S(=O)(=O)[O-])cc3S(=O)(=O)[O-])c3ccc(=[N+](CC)CC)cc-3oc2c1.[Na+] [Acid Red] | – | lower permeability | – | – | about 40 μm | about 70 μm
